Laboratory results reported in patent US7229785B2, “Fluorescence technique for on-line monitoring of state of hydrogen-producing microorganisms” (priority 2002, dated 2007).

How the values were obtained:
[1] = test system: C. reinhardtii cells; assay: Inhibitor (KCN, SHAM) effect on rates of dark respiration during sulfur deprivation, Clark electrode; format: cell-based, Chlamydomonas reinhardtii; details: SHAM 4 mM, 5 min, 17% O2
Description: To determine the precise moment of H2-photoproduction onset, we measured the percentage of H2 contained in the gas phase (˜7 ml) on the top of the vessel immediately after anaerobiosis by gas chromatography. The dissolved O2 and redox potential of the medium were also measured. Chlorophyll concentrations were then obtained spectrophotometrically in 95% ethanol cell extracts. The capacity for respiratory O2 consumption was measured with a Clark electrode at 25° C. under aerobic conditions (17% or 170 μM O2) after removing the samples from the culture vessel and equilibrating them with air for 5 minutes.
The PQ pool is further oxidized by dissolved O2 through the action of PQ-oxidase. In the mitochondria, NADH and FADH2 generated by the Krebs Cycle serve as the source of electrons for a membrane-bound electron transport chain with O2 as the final electron acceptor. The cytochrome oxidase transduces the production of 3 ATP molecules per pair of electrons transported. […]. In both cases, O2 is the terminal electron acceptor. The mitochondrial cytochrome oxidase in C reinhardtii is inhibited by KCN, carbon monoxide, and sodium azide, while the alternative oxidase is specifically affected by salicylic hydroxamic acid (SHAM). The putative chloroplast PQ oxidase, on the other hand, is not inhibited by SHAM and only slightly affected by KCN. By measuring the influence of two inhibitors, KCN and SHAM, on the rates of dark respiration, we tried to estimate the relative contributions of each of the three oxidases at different times after sulfur deprivation. The actual contributions of the three oxidases to the scavenging O2 in situ depend on many factors such as their relative KM's for O2 and the rate of diffusion of O2 from the chloroplast to the mitochondria. Thus, the inhibitor studies that follow may not directly reflect the actual situation in the photobioreactor, but they do indicate that changes in the relative contribution of the three oxidases occur over the course of sulfure deprivation.
Contributions to the mitochondrial cytochrome oxidase [CO], mitochondrial alternative oxidase [AO], and chlororespiration [CR] to the total respiration rate of C. reinhardtii cells are also shown during sulfur-deprivation. […].

[2] = test system: sulfur-depleted C. reinhardtii cells; assay: Effect of DCMU on the rate of H2 photoproduction by sulfur-depleted algal cultures; format: cell-based, Chlamydomonas reinhardtii; details: 10 μM DCMU added to culture after H2 gas production has started
Description: […]. DCMU was added to treated cells at the arrow. Time zero in this case represents the time after H2 photoproduction starts.
Chlamydomonas reinhardtii strain Dangeard C137+ was grown in Tris-acetate-phosphate (TAP) medium (pH, 7.0) under continuous cool-white fluorescent light. Late-log cells were pelleted three times by centrifiguation and re-suspended in the same medium, from which inorganic sulfure (TAP-S) was omitted. The cells were incubated under continuous fluorescent illumation (200-250 μE m^−2 s^−1 PAR) in cylindrical reactor vessels (600 ml) with a rotating glass rod and Teflon impellers for mixing. A magnetic bar was attached at the bottom of the rod to couple it to an external stirring motor, and the rate of mixing was 60-80 rpm. The vessels were sealed using a silicon stopper with an outlet tube inserted through it for gas collection. The gas produced by the cells was collected in an inverted graduated glass cylinder by water displacement.
The direct involvement of PSII-catalyzed water oxidation activity by sulfur-deprived cells was further investigated using PAM fluorescence techniques.

Compound	% SHAM inhibition (% AO) of respiration ([1]; During H2 production) [%]	% SHAM inhibition (% AO) of respiration ([1]; End of H2 production) [%]	% SHAM inhibition (% AO) of respiration ([1]; Start of H2 production phase) [%]	% SHAM inhibition (% AO) of respiration ([1]; Start of anaerobic phase) [%]	% SHAM inhibition (% AO) of respiration ([1]; Start of sulfur depletion) [%]	decrease of the rate of H2 gas production [2] [%]
O=C(NO)c1ccccc1O [SHAM, salicylic hydroxamic acid]	38	100	13	0	25	
DCMU						80
